Experimental data published in patent US6930075B1, “Fatty acid-based herbicidal composition” (priority 1990, dated 2005).

Legend:
Format in all cases: in vivo
[1] = tested on: Radish Plants; test: Greenhouse spray, phytotoxicity and mortality over time; settings: for Mortality: plants died of 4
Procedure: (§1) Herbicidal treatments were applied using a spray chamber fitted with a TeeJet 8006E flat fan nozzle (available from Spraying Systems Co., Wheaton, Ill.), calibrated to spray at a volume of 60 gpa at 40 psi. Treatment solutions were freshly prepared for each experiment. […] M. et al, J. Wiley and Sons, 1975, pp. 119–120, 218.
(§2) In a greenhouse facility four plant species were grown in 5.5 cm square pots using a potting soil mix comprising peat, vermiculite, sand and 4-10-10 fertilizer. Water soluble 20-20-20 fertilizer was used as a supplement for the plants as required. The plant species used were corn, oats, radish and morningglory. The plants were selected for use based on uniformity and quality. The corn plants used were in the 3 to 4 leaf stage and two plants were present in each pot. The oats used were in the 2 to 4 leaf stage and four plants were present per pot. The radish plants used were in the 3 to 5 leaf stage and one plant was used per pot. The morningglory were in the 2 to 4 leaf stage with one plant per pot. After spraying with a herbicidal formulation, the pots were arranged in a randomized complete block design in sub-irrigated watering trays, and included a water-treated control treatment. Four replicates (pots) were used for each treatment.
(§3) Herbicidal treatments were applied and recorded as in Example 1.

[2] = tested on: Oats; test: as above
Procedure: as §1, §2, §3

[3] = tested on: Hypochoeris radicata (false dandelion); test: Greenhouse post-emergence spray, plant damage rating; settings: H. radicata, alone and combined
Procedure: (§4) Three species of weed, used in each test: Hypochoeris radicata (false dandelion), Sinapis, arvensis (wild mustard), and Avena sativa (oats), were grown in a greenhouse facility in 5.5 cm square pots using a potting soil mix comprising peat, vermiculite, sand, and 4-10-10 fertilizer. Water-soluble 20-20-20 fertilizer was used as a supplement for the plants as required. The plants were selected for use based on uniformity and quality and were potted separately. One plant per pot each of H. radicata (6–10 leaves) and S. arvensis (4–6 leaves) were used. Six to eight plants of A. sativa (2–4 leaves) were used per pot. After spraying with a herbicidal composition (as described below) the pots were arranged in a randomized complete block design in sub-irrigated watering trays. Six to ten replicates (pots) were used per treatment.
(§5) Herbicidal treatments were applied using a spray chamber fitted with a TeeJet 8006E flat fan nozzle (available from Spraying Systems Co., Wheaton, Ill.), calibrated to spray at a volume of 60 gpa at 40 psi. Treatment solutions were freshly prepared for each experiment. Plant damage was assessed at 10 to 14 days after treatment using a pre-transformed 0–10 rating scale (0 representing no damage, 10 representing plant death) in accordance with the procedure outlined in Statistical Methods in Agricultural Research, Little, T. M. et al, J. Wiley and Sons, 1975, pp. 119–120, 218.

[4] = tested on: Avena sativa (oats); test: as above; settings: A. sativa, alone and combined
Procedure: as §4, §5

[5] = tested on: Sinapis arvensis (wild mustard); test: as above; settings: S. arvensis, alone and combined
Procedure: as §4, §5

[6] = Table 2 set 1: Round-Up 0.1%, Sodium pelargonate 0.1%
[7] = Table 2 set 2: Round-Up 0.1%, Sodium pelargonate 0.1% (so in the source)
[8] = Table 2 set 3: Round-Up 0.1%, Sodium pelargonate 0.1% (so in the source)

## CCCCCCCCC(=O)[O-].[Na+] [Sodium pelargonate]
[1]; 2 Days after Treatment
  Phyto = Phytotoxicity (0–10 rating scale): 0
  Mortality: 0
[1]; 4 Days after Treatment
  Phyto = Phytotoxicity (0–10 rating scale): 0
  Mortality: 0
[1]; 7 Days after Treatment, listed as 0.1% C9 Na^+ Salt
  Phyto = Phytotoxicity (0–10 rating scale): 0
[1]; 7 Days after Treatment, listed as 0.5% C9 Na^+ Salt
  Phyto = Phytotoxicity (0–10 rating scale): 0
[1]; 7 Days after Treatment, listed as 1.0% C9 Na^+ Salt
  Phyto = Phytotoxicity (0–10 rating scale): 0.5
[1]; 7 Days after Treatment
  Mortality: 0
[1]; 9 Days after Treatment, listed as 0.1% C9 Na^+ Salt
  Phyto = Phytotoxicity (0–10 rating scale): 0
[1]; 9 Days after Treatment, listed as 0.5% C9 Na^+ Salt
  Phyto = Phytotoxicity (0–10 rating scale): 0
[1]; 9 Days after Treatment, listed as 1.0% C9 Na^+ Salt
  Phyto = Phytotoxicity (0–10 rating scale): 0.5
[1]; 9 Days after Treatment
  Mortality: 0
[1]; 11 Days after Treatment, listed as 0.1% C9 Na^+ Salt
  Phyto = Phytotoxicity (0–10 rating scale): 0
[1]; 11 Days after Treatment, listed as 0.5% C9 Na^+ Salt
  Phyto = Phytotoxicity (0–10 rating scale): 0
[1]; 11 Days after Treatment, listed as 1.0% C9 Na^+ Salt
  Phyto = Phytotoxicity (0–10 rating scale): 0.5
[1]; 11 Days after Treatment
  Mortality: 0
[1]; 16 Days after Treatment, listed as 0.1% C9 Na^+ Salt
  Phyto = Phytotoxicity (0–10 rating scale): 0
[1]; 16 Days after Treatment, listed as 0.5% C9 Na^+ Salt
  Phyto = Phytotoxicity (0–10 rating scale): 0
[1]; 16 Days after Treatment, listed as 1.0% C9 Na^+ Salt
  Phyto = Phytotoxicity (0–10 rating scale): 0.5
[1]; 16 Days after Treatment
  Mortality: 0
[1]; 18 Days after Treatment, listed as 0.1% C9 Na^+ Salt
  Phyto = Phytotoxicity (0–10 rating scale): 0
[1]; 18 Days after Treatment, listed as 0.5% C9 Na^+ Salt
  Phyto = Phytotoxicity (0–10 rating scale): 0
[1]; 18 Days after Treatment, listed as 1.0% C9 Na^+ Salt
  Phyto = Phytotoxicity (0–10 rating scale): 0.5
[1]; 18 Days after Treatment
  Mortality: 0
[1]; 21 Days after Treatment, listed as 0.1% C9 Na^+ Salt
  Phyto = Phytotoxicity (0–10 rating scale): 0
[1]; 21 Days after Treatment, listed as 0.5% C9 Na^+ Salt
  Phyto = Phytotoxicity (0–10 rating scale): 0
[1]; 21 Days after Treatment, listed as 1.0% C9 Na^+ Salt
  Phyto = Phytotoxicity (0–10 rating scale): 0.5
[1]; 21 Days after Treatment
  Mortality: 0
[1]; 23 Days after Treatment, listed as 0.1% C9 Na^+ Salt
  Phyto = Phytotoxicity (0–10 rating scale): 0
[1]; 23 Days after Treatment, listed as 0.5% C9 Na^+ Salt
  Phyto = Phytotoxicity (0–10 rating scale): 0
[1]; 23 Days after Treatment, listed as 1.0% C9 Na^+ Salt
  Phyto = Phytotoxicity (0–10 rating scale): 0.5
[1]; 23 Days after Treatment
  Mortality: 0
[1]; 25 Days after Treatment, listed as 0.1% C9 Na^+ Salt
  Phyto = Phytotoxicity (0–10 rating scale): 0
[1]; 25 Days after Treatment, listed as 0.5% C9 Na^+ Salt
  Phyto = Phytotoxicity (0–10 rating scale): 0
[1]; 25 Days after Treatment, listed as 1.0% C9 Na^+ Salt
  Phyto = Phytotoxicity (0–10 rating scale): 0.5
[1]; 25 Days after Treatment
  Mortality: 0
[1]; 28 Days after Treatment, listed as 0.1% C9 Na^+ Salt
  Phyto = Phytotoxicity (0–10 rating scale): 0
[1]; 28 Days after Treatment, listed as 0.5% C9 Na^+ Salt
  Phyto = Phytotoxicity (0–10 rating scale): 0
[1]; 28 Days after Treatment, listed as 1.0% C9 Na^+ Salt
  Phyto = Phytotoxicity (0–10 rating scale): 0.5
[1]; 28 Days after Treatment
  Mortality: 0
[1]; 30 Days after Treatment, listed as 0.1% C9 Na^+ Salt
  Phyto = Phytotoxicity (0–10 rating scale): 0
[1]; 30 Days after Treatment, listed as 0.5% C9 Na^+ Salt
  Phyto = Phytotoxicity (0–10 rating scale): 0
[1]; 30 Days after Treatment, listed as 1.0% C9 Na^+ Salt
  Phyto = Phytotoxicity (0–10 rating scale): 0.5
[1]; 30 Days after Treatment
  Mortality: 0
[1]; 32 Days after Treatment, listed as 0.1% C9 Na^+ Salt
  Phyto = Phytotoxicity (0–10 rating scale): 0
[1]; 32 Days after Treatment, listed as 0.5% C9 Na^+ Salt
  Phyto = Phytotoxicity (0–10 rating scale): 0
[1]; 32 Days after Treatment, listed as 1.0% C9 Na^+ Salt
  Phyto = Phytotoxicity (0–10 rating scale): 0.5
[1]; 32 Days after Treatment
  Mortality: 0
[1]; 35 Days after Treatment, listed as 0.1% C9 Na^+ Salt
  Phyto = Phytotoxicity (0–10 rating scale): 0
[1]; 35 Days after Treatment, listed as 0.5% C9 Na^+ Salt
  Phyto = Phytotoxicity (0–10 rating scale): 0
[1]; 35 Days after Treatment, listed as 1.0% C9 Na^+ Salt
  Phyto = Phytotoxicity (0–10 rating scale): 0.5
[1]; 35 Days after Treatment
  Mortality: 0
[1]; 42 Days after Treatment, listed as 0.1% C9 Na^+ Salt
  Phyto = Phytotoxicity (0–10 rating scale): 0
[1]; 42 Days after Treatment, listed as 0.5% C9 Na^+ Salt
  Phyto = Phytotoxicity (0–10 rating scale): 0
[1]; 42 Days after Treatment, listed as 1.0% C9 Na^+ Salt
  Phyto = Phytotoxicity (0–10 rating scale): 0.5
[1]; 42 Days after Treatment
  Mortality: 0
[1]; 46 Days after Treatment, listed as 0.1% C9 Na^+ Salt
  Phyto = Phytotoxicity (0–10 rating scale): 0
[1]; 46 Days after Treatment, listed as 0.5% C9 Na^+ Salt
  Phyto = Phytotoxicity (0–10 rating scale): 0
[1]; 46 Days after Treatment, listed as 1.0% C9 Na^+ Salt
  Phyto = Phytotoxicity (0–10 rating scale): 0.5
[1]; 46 Days after Treatment
  Mortality: 0
[1]; 57 Days after Treatment, listed as 0.1% C9 Na^+ Salt
  Phyto = Phytotoxicity (0–10 rating scale): 0
[1]; 57 Days after Treatment, listed as 0.5% C9 Na^+ Salt
  Phyto = Phytotoxicity (0–10 rating scale): 0
[1]; 57 Days after Treatment, listed as 1.0% C9 Na^+ Salt
  Phyto = Phytotoxicity (0–10 rating scale): 0.5
[1]; 57 Days after Treatment
  Mortality: 0
[2]; 2 Days after Treatment
  Phyto (phytotoxicity ratings, 0–10 rating scale): 0
[2]; 4 Days after Treatment
  Phyto (phytotoxicity ratings, 0–10 rating scale): 0
[2]; 7 Days after Treatment
  Phyto (phytotoxicity ratings, 0–10 rating scale): 0
[2]; 9 Days after Treatment
  Phyto (phytotoxicity ratings, 0–10 rating scale): 0
[2]; 11 Days after Treatment
  Phyto (phytotoxicity ratings, 0–10 rating scale): 0
[2]; 16 Days after Treatment
  Phyto (phytotoxicity ratings, 0–10 rating scale): 0
[2]; 18 Days after Treatment
  Phyto (phytotoxicity ratings, 0–10 rating scale): 0
[2]; 21 Days after Treatment
  Phyto (phytotoxicity ratings, 0–10 rating scale): 0
[2]; 23 Days after Treatment
  Phyto (phytotoxicity ratings, 0–10 rating scale): 0
[2]; 25 Days after Treatment
  Phyto (phytotoxicity ratings, 0–10 rating scale): 0
[2]; 28 Days after Treatment
  Phyto (phytotoxicity ratings, 0–10 rating scale): 0
[2]; 30 Days after Treatment
  Phyto (phytotoxicity ratings, 0–10 rating scale): 0
[2]; 32 Days after Treatment
  Phyto (phytotoxicity ratings, 0–10 rating scale): 0
[2]; 35 Days after Treatment
  Phyto (phytotoxicity ratings, 0–10 rating scale): 0
[3]; [6]
  Phytotoxicity (%) Observed: 0%
[3]; [7]
  Phytotoxicity (%) Observed: 0%
[3]; [8]
  Phytotoxicity (%) Observed: 0%
[4]; [6]
  Phytotoxicity (%) Observed: 0%
[4]; [7]
  Phytotoxicity (%) Observed: 0%
[4]; [8]
  Phytotoxicity (%) Observed: 1%
[5]; [6]
  Phytotoxicity (%) Observed: 0%
[5]; [7]
  Phytotoxicity (%) Observed: 0%
[5]; [8]
  Phytotoxicity (%) Observed: 0%
